Laboratory results as given in patent US9226498B2.
Where two headings read alike, the source gives them in different places.

Assays:
spring wheat (TRZAS) [1] = settings: Trial II
Description: (§1) Five small plot field trials were established across various ecozones to evaluate the crop safety of florasulam and 4-amino-3-chloro-6-(4-chloro-2-fluoro-3-methoxy-phenyl)pyridine-2-carboxylic acid TEA (triethylamine) salt or of florasulam and 4-amino-3-chloro-6-(4-chloro-2-fluoro-3-methoxyphenyl)pyridine-2-carboxylic acid methyl ester, when applied alone or in combination, on spring cereals including spring wheat, spring barley and tame oats.
(§2) In Trials III, IV, and V the methyl ester of the compound of formula (I) was applied alone at rates of 5-10 g ae/ha using a formulation containing 200 grams acid equivalent per kilogram (g ae/kg) of the methyl ester with 0.5% v/v Turbocharge adjuvant. […] All herbicide treatments were applied post-emergence in the spring to early summer Herbicides were applied with bicycle- or tractor-mounted sprayers using carbon dioxide (CO2) as a propellant. The sprayers delivered a uniform spray pattern that provided thorough coverage of the foliage using a 100 liter per hectare (L/ha) spray volume. At the time of herbicide applications, spring barley, spring wheat and tame oats were at the two leaf stage to the seven leaf, three tiller stage. Phytotoxicity to cereal crops was visually assessed as percent overall injury, compared to an untreated control plot. The overall injury assessments were based on visual ratings of growth inhibition, chlorosis, and delay in maturity. At late ratings, percent visual seed head deformity was also assessed. Trials were designed as randomized complete blocks with four replicates. In general, three to four replicates were assessed for each treatment.
(§3) Colby's equation is: Expected=A+B−(A×B/100) • A=observed efficacy of active ingredient A at the same concentration as used in the mixture; • B=observed efficacy of active ingredient B at the same concentration as used in the mixture.

spring wheat (TRZAS) [2] = settings: Trial I
Description: as §1, §2, §3

tame oats (AVESA) [3] = assay: Trial IV field trial, postemergence crop injury; assay type: in vivo, Avena sativa
spring barley (HORVS) [4] = assay: Trial IV cont. field trial, postemergence crop injury; assay type: in vivo, Hordeum vulgare L
tame oats (AVESA) [5] = assay: Trial III field trial, postemergence crop injury; assay type: in vivo, Avena sativa
spring barley (HORVS) [6] = assay: Trial V field trial, postemergence crop injury; assay type: in vivo, Hordeum vulgare L

COc1ncc(F)c2nc(S(=O)(=O)Nc3c(F)cccc3F)nn12 [Florasulam, 2′,6′,8-trifluoro-5-methoxy[1,2,4]triazolo[1,5-c]pyrimidine-2-sulfonanilide, reference compound]
Percent (%) Visual Incidence Head Deformity 55 DAT Obs (spring wheat (TRZAS) [1]; Florasulam 5 g ai/ha alone): 0.0 e %
Percent (%) Visual Injury 55 DAT Obs (spring wheat (TRZAS) [1]; Florasulam 5 g ai/ha alone): 0.0 e %
Percent (%) Visual Incidence Head Deformity 71 DAT Obs (spring wheat (TRZAS) [2]; Florasulam 5 g ai/ha alone): 0.0 g %
Percent (%) Visual Injury 71 DAT Obs (spring wheat (TRZAS) [2]; Florasulam 5 g ai/ha alone): 0 e %

COC(=O)c1nc(-c2ccc(Cl)c(OC)c2F)cc(N)c1Cl [Compound II]
Percent (%) Visual Injury 7 DAT Observed (tame oats (AVESA) [3]; Compound II 5 g ae/ha alone): 0.0 d %
Percent (%) Visual Injury 14 DAT Observed (tame oats (AVESA) [3]; Compound II 5 g ae/ha alone): 2.0 cde %
Percent (%) Visual Injury 28 DAT Observed (tame oats (AVESA) [3]; Compound II 5 g ae/ha alone): 3.3 de %
Percent (%) Visual Injury 53 DAT Observed (tame oats (AVESA) [3]; Compound II 5 g ae/ha alone): 2.5 fgh %
Percent (%) Visual Injury 7 DAT Observed (tame oats (AVESA) [3]; Compound II 10 g ae/ha alone): 1.3 bcd %
Percent (%) Visual Injury 14 DAT Observed (tame oats (AVESA) [3]; Compound II 10 g ae/ha alone): 9.5 abc %
Percent (%) Visual Injury 28 DAT Observed (tame oats (AVESA) [3]; Compound II 10 g ae/ha alone): 14.5 ab %
Percent (%) Visual Injury 53 DAT Observed (tame oats (AVESA) [3]; Compound II 10 g ae/ha alone): 9.4 abc %
Percent (%) Visual Head Deformity Obs (spring barley (HORVS) [4]; Compound II 5 g ae/ha alone): 0.0 a %
Percent (%) Visual Injury 7 DAT Obs (spring barley (HORVS) [4]; Compound II 5 g ae/ha alone): 0.0 e %
Percent (%) Visual Injury 14 DAT Obs (spring barley (HORVS) [4]; Compound II 5 g ae/ha alone): 0.0 c %
Percent (%) Visual Injury 28 DAT Obs (spring barley (HORVS) [4]; Compound II 5 g ae/ha alone): 3.3 de %
Percent (%) Visual Injury 70 DAT Obs (spring barley (HORVS) [4]; Compound II 5 g ae/ha alone): 2.5 fgh %
Percent (%) Visual Head Deformity Obs (spring barley (HORVS) [4]; Compound II 10 g ae/ha alone): 1.3 a %
Percent (%) Visual Injury 7 DAT Obs (spring barley (HORVS) [4]; Compound II 10 g ae/ha alone): 0.0 e %
Percent (%) Visual Injury 14 DAT Obs (spring barley (HORVS) [4]; Compound II 10 g ae/ha alone): 0.0 c %
Percent (%) Visual Injury 28 DAT Obs (spring barley (HORVS) [4]; Compound II 10 g ae/ha alone): 14.5 ab %
Percent (%) Visual Injury 70 DAT Obs (spring barley (HORVS) [4]; Compound II 10 g ae/ha alone): 9.4 abc %
Percent (%) Visual Head Deformity 70 DAT Obs (tame oats (AVESA) [5]; Compound II 5 g ae/ha alone): 7.5 cd %
Percent (%) Visual Injury 7 DAT Obs (tame oats (AVESA) [5]; Compound II 5 g ae/ha alone): 0.0 d %
Percent (%) Visual Injury 16 DAT Obs (tame oats (AVESA) [5]; Compound II 5 g ae/ha alone): 2.5 de %
Percent (%) Visual Injury 31 DAT Obs (tame oats (AVESA) [5]; Compound II 5 g ae/ha alone): 5.0 fg %
Percent (%) Visual Injury 70 DAT Obs (tame oats (AVESA) [5]; Compound II 5 g ae/ha alone): 15.8 def %
Percent (%) Visual Head Deformity 70 DAT Obs (tame oats (AVESA) [5]; Compound II 10 g ae/ha alone): 15.0 bcd %
Percent (%) Visual Injury 7 DAT Obs (tame oats (AVESA) [5]; Compound II 10 g ae/ha alone): 0.0 d %
Percent (%) Visual Injury 16 DAT Obs (tame oats (AVESA) [5]; Compound II 10 g ae/ha alone): 13.8 cde %
Percent (%) Visual Injury 31 DAT Obs (tame oats (AVESA) [5]; Compound II 10 g ae/ha alone): 25.0 de %
Percent (%) Visual Injury 70 DAT Obs (tame oats (AVESA) [5]; Compound II 10 g ae/ha alone): 33.8 bcd %
Percent (%) Head Deformity 64 DAT Obs (spring barley (HORVS) [6]; Compound II 5 g ae/ha alone): 0.3 b %
Percent (%) Injury Visual 15 DAT Obs (spring barley (HORVS) [6]; Compound II 5 g ae/ha alone): 0.5 a %
Percent (%) Visual Injury 27 DAT Obs (spring barley (HORVS) [6]; Compound II 5 g ae/ha alone): 1.0 c %
Percent (%) Visual Injury 49 DAT Obs (spring barley (HORVS) [6]; Compound II 5 g ae/ha alone): 0.0 c %
Percent (%) Head Deformity 64 DAT Obs (spring barley (HORVS) [6]; Compound II 10 g ae/ha alone): 21.8 ab %
Percent (%) Injury Visual 15 DAT Obs (spring barley (HORVS) [6]; Compound II 10 g ae/ha alone): 0.5 a %
Percent (%) Visual Injury 27 DAT Obs (spring barley (HORVS) [6]; Compound II 10 g ae/ha alone): 0.0 c %
Percent (%) Visual Injury 49 DAT Obs (spring barley (HORVS) [6]; Compound II 10 g ae/ha alone): 0.5 bc %

COc1c(Cl)ccc(-c2cc(N)c(Cl)c(C(=O)O)n2)c1F [Compound I]
Percent (%) Visual Incidence Head Deformity 55 DAT Obs (spring wheat (TRZAS) [1]; Compound I 17.5 g ae/ha alone): 7.5 cde %
Percent (%) Visual Injury 55 DAT Obs (spring wheat (TRZAS) [1]; Compound I 17.5 g ae/ha alone): 5.8 de %
Percent (%) Visual Incidence Head Deformity 55 DAT Obs (spring wheat (TRZAS) [1]; Compound I 35 g ae/ha alone): 43.8 ab %
Percent (%) Visual Injury 55 DAT Obs (spring wheat (TRZAS) [1]; Compound I 35 g ae/ha alone): 35 a %
Percent (%) Visual Incidence Head Deformity 71 DAT Obs (spring wheat (TRZAS) [2]; Compound I 17.5 g ae/ha alone): 20 d-g %
Percent (%) Visual Injury 71 DAT Obs (spring wheat (TRZAS) [2]; Compound I 17.5 g ae/ha alone): 12.5 cd %
Percent (%) Visual Incidence Head Deformity 71 DAT Obs (spring wheat (TRZAS) [2]; Compound I 35 g ae/ha alone): 60 a %
Percent (%) Visual Injury 71 DAT Obs (spring wheat (TRZAS) [2]; Compound I 35 g ae/ha alone): 32.5 a %
